6 compounds from publication PMC9687798, “Atypical Substrates of the Organic Cation Transporter 1” (Biomolecules, 2022) can be followed below.

The target in test [1] is T1, variant human OCT1*2 (M420del) (Homo sapiens, UniProt O15245, DEL420-420).
T1 construct: expressed in transfected cells
T1 sequence (O15245 with tags, fused parts or gaps DEL420-420): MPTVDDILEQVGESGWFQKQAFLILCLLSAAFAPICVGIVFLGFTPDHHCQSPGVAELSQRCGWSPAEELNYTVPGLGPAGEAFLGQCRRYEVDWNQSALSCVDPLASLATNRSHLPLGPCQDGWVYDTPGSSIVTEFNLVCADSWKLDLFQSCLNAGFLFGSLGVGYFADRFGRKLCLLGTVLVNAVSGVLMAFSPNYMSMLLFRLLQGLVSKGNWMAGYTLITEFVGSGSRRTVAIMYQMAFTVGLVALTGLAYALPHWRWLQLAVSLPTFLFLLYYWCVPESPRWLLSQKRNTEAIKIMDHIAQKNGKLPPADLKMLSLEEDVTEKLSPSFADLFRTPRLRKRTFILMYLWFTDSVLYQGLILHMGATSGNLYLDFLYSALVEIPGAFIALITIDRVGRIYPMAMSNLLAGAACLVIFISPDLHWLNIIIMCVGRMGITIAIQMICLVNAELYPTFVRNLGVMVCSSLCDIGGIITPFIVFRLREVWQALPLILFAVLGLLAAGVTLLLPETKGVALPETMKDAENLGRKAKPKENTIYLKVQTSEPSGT
Nature of the test: Cellular uptake by HEK293 cells overexpressing OCT1*2. The test is classed as cell-based. The note with it: for uptake by OCT1*2 in comparison to OCT1*1: 1 µM substance; for uptake of prostaglandins by OCT1*2 in comparison to wild-type: 1, 10 and 100 µM, 120 s. On the procedure:
(§1) The wild-type cell lines of OCT1 and OCT2, as well as the variant cell lines OCT1*2 and *3, were generated using the Flp-In system (Thermo Fisher Scientific, Darmstadt, Germany) as described in previous publications. The cell line overexpressing OCT3 was a kind gift from Dr. Koepsell and Dr. Gorbulev (University of Würzburg, Germany). Cells transfected with the empty pcDNA5/FRT vector were used for the transport experiments as a control cell line. All cells were cultured approximately up to passage 30.
(§2) Forty-eight hours before the transport experiments, 600,000 cells were plated on 12-well plates pre-coated with poly-D-lysine and incubated at 37 °C with 5% CO2. The prepared 12-well plate with cells was positioned on a heating plate pre-warmed to 37 °C. After removing the medium, the cells were washed with 37 °C HBSS+ (10 mM HEPES in Hank’s balanced salt solution, pH 7.4). Then, one pre-defined concentration of a substrate was added to each well. The incubation period was stopped by adding 2 mL of 4 °C HBSS+ and removing the cells from the heating plate. The cells were washed twice with 4 °C HBSS+. For cell lysis, the cells were incubated for 15 min with 500 µL of 80% acetonitrile (LGC Standards, Wesel, Germany), which contained a respective internal standard (Table 1).
For concentration-dependent transport, the cells were incubated with defined substrate concentrations (0.1, 1, 10, 30, 100, 300, 600, 1000 µM) for the respective pre-defined incubation times. […] The uptake by a transporter was normalised to the uptake by empty vector-transfected cells. […] The results of transport experiments were normalized to the total protein concentration per well. Total protein quantification was performed using a bicinchoninic acid assay with bovine serum albumin as standard.
The ratios of cellular uptake were calculated by dividing the total uptake of transporter-overexpressing cells by the total uptake into empty vector transfected cells. The concentration-dependent cellular net uptake was used for analysis of transport kinetics by subtracting for each substrate concentration the uptake of empty vector-transfected cells from the uptake of transporter-overexpressing cells. […] The intrinsic clearance Clint was expressed with the ratio of Vmax and KM.

The target of test [2] is T2, OCT1*3 (R61C) (Homo sapiens, UniProt O15245, R61C).
T2 construct: expressed in transfected cells
T2 sequence (O15245 1-554 R61C): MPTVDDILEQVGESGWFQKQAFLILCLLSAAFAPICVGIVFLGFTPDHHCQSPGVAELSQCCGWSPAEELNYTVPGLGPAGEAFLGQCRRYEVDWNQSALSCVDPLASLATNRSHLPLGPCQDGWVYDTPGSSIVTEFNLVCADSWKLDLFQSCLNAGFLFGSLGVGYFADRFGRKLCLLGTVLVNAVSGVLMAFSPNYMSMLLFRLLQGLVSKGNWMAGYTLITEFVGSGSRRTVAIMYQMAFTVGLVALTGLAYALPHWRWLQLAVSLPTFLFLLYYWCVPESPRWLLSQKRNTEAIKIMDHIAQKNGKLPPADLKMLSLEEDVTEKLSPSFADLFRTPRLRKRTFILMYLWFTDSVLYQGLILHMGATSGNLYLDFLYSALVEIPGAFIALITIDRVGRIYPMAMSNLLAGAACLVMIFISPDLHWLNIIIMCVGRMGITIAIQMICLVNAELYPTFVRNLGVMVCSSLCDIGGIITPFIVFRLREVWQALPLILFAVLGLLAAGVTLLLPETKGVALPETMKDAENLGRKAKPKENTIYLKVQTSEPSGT
Nature of the test: Cellular uptake by HEK293 cells overexpressing OCT1*3. The test is classed as cell-based. The note with it: for uptake by OCT1*3 in comparison to OCT1*1: 1 µM substance; for uptake of prostaglandins by OCT1*3 in comparison to wild-type: 1, 10 and 100 µM, 120 s. Here is the method: as §1, with “The transport experiments were performed using HEK293 cells that overexpress human OCT1*1 (wild-type), mutant human OCT1 D474N, variant human OCT1*2 (M420del) and OCT1*3 (R61C), wild-type human OCT2, and OCT3 after stable transfection. The wild-type” for “The wild-type”
as §2
For time-dependent transport, the cells were incubated with 1 µM of the substance for 15 to 240 s to determine the linear uptake range ≥ 15 s. For concentration-dependent transport, the cells were incubated with defined substrate concentrations (0.1, 1, 10, 30, 100, 300, 600, 1000 µM) for the respective pre-defined incubation times. […]; 100 µM) and pre-defined incubation times. The uptake by a transporter was normalised to the uptake by empty vector-transfected cells. […] The results of transport experiments were normalized to the total protein concentration per well. Total protein quantification was performed using a bicinchoninic acid assay with bovine serum albumin as standard.
The ratios of cellular uptake were calculated by dividing the total uptake of transporter-overexpressing cells by the total uptake into empty vector transfected cells. The concentration-dependent cellular net uptake was used for analysis of transport kinetics by subtracting for each substrate concentration the uptake of empty vector-transfected cells from the uptake of transporter-overexpressing cells. The transport kinetic parameters Vmax and KM were determined with non-linear regression by using the Michaelis–Menten equation for net uptake data and by using the Michaelis–Menten equation extended with a linear term for total uptake data (GraphPad Prism 5.01, GraphPad software, LA Jolla, CA, USA). The intrinsic clearance Clint was expressed with the ratio of Vmax and KM.

The structures appear in SMILES notation.

Consider `Nc1nc(=O)n([C@@H]2CS[C@H](CO)O2)cc1F` [Emtricitabine, emtricitabine], for which the “uptake by OCT1*2 in comparison to OCT1*1” value in test [1] is reported as “reduction in uptake”. Moreover, the “uptake by OCT1*3 in comparison to OCT1*1” value in test [2] is given as “reduction in uptake”.
With `N=C(N)c1ccc(OCCCCCOc2ccc(C(=N)N)cc2)cc1` [Pentamidine, pentamidine], the “uptake by OCT1*2 in comparison to OCT1*1” value in test [1] is reported as “to a small extent”. Also, the “uptake by OCT1*3 in comparison to OCT1*1” value in test [2] is recorded as “to a small extent”.
`CCCCC[C@H](O)/C=C/[C@H]1[C@H](O)CC(=O)[C@@H]1C/C=C\CCCC(=O)O` [Prostaglandin E2, prostaglandin E2]: the “uptake of prostaglandins by OCT1*2 in comparison to wild-type” value in test [1] is listed as “reduced to the level of the control cell line”. For the same compound, the “uptake of prostaglandins by OCT1*3 in comparison to wild-type” value in test [2] is on record as “reduced to the level of the control cell line”.
Turning to `CCCCC[C@H](O)/C=C/[C@@H]1[C@@H](C/C=C\CCCC(=O)O)[C@@H](O)C[C@H]1O` [Prostaglandin F2α, prostaglandin F2α], the “uptake of prostaglandins by OCT1*2 in comparison to wild-type” value in test [1] is “reduced to the level of the control cell line”. Also, the “uptake of prostaglandins by OCT1*3 in comparison to wild-type” value in test [2] is listed as “reduced to the level of the control cell line”.
`COc1cc(Cc2cnc(N)nc2N)cc(OC)c1OC` [Trimethoprim, trimethoprim]: the “uptake by OCT1*2 in comparison to OCT1*1” value in test [1] is “reduction in uptake”. Further, the “uptake by OCT1*3 in comparison to OCT1*1” value in test [2] was “reduction in uptake”.
For the compound `Nc1ccn([C@H]2CC[C@@H](CO)O2)c(=O)n1` [Zalcitabine, zalcitabine], the “uptake by OCT1*2 in comparison to OCT1*1” value in test [1] is “reduction in uptake”. Besides, in test [2], the “uptake by OCT1*3 in comparison to OCT1*1” value is “reduction in uptake”.
